Measurements reported in paper PMC10094418, “Butein Inhibits Cell Growth by Blocking the IL-6/IL-6Rα Interaction in Human Ovarian Cancer and by Regulation of the IL-6/STAT3/FoxO3a Pathway” (International Journal of Molecular Sciences, 2023).

Legend:
A2780 cells [1] = assay: Clonogenic formation assay, A2780; format: cell-based, human; details: compared with control siltuximab-treated cells
Experimental: (§1) A2780 and SKOV3 cell lines were seeded at approximately 5000 cells/well in 24-well plates. Butein was added to the cell medium at various concentrations (5, 10, and 25 μM) together with control siltuximab (CTNO328; EUSA Pharma, Inc., Hemel Hempstead, UK) for 12 h. After 2 weeks, the colonies formed were fixed with fixer buffer, stained with crystal violet, and imaged with a ChemiDoc imaging system (Bio-Rad, Herles, CA, USA).

SKOV3 cells = assay: Clonogenic formation assay, SKOV3; format: cell-based, human; details: compared with control siltuximab-treated cells
Experimental: as §1

[2] = tested on: STAT3 phosphorylation in SKOV3 cells; assay: Western blotting of STAT3 phosphorylation, SKOV3; format: cell-based, human; details: relative to IL-6 treated cells
Experimental: After each drug treatment of the cells, the cells were dissolved in 100 μL of radioimmunoprecipitation assay (RIPA) buffer (Thermo Fisher Scientific Inc., Waltham, MA, USA) and centrifuged to separate the supernatant containing protein. Isolated protein concentrations were measured using the Pierce BCA Protein Assay Kit (Thermo Fisher Scientific Inc., Waltham, MA, USA). Aliquots of proteins quantified at […] were boiled at 100 °C in 5× sample buffer, separated on a 12% SDS-polyacrylamide gel and electrophoresed onto polyvinylidene difluoride (PDVF) membranes (Millipore, Billerica, MA, USA). The PDVF membranes were blocked for 1 h at 25 °C with 5% BSA in 1× tris buffered saline containing 0.05% Tween20 (TBST) (Sigma-Aldrich, St. Louis, MO, USA). The membrane was incubated in the primary antibody at 4 °C overnight. PDVF membranes were washed with 1× TBST and incubated with AffiniPure goat anti-rabbit IgG secondary antibody (Jackson Immunoresearch, West Grove, PA, USA) for 1 h at room temperature. After washing again with TBST buffer, enhanced signals were detected using the SuperSignal™ West Femto Maximum Sensitivity Substrate kit (cat.no. 34094, Thermo Scientific, Rockford, IL, USA). The blot was imaged using the ChemiDoc imaging system (Bio-Rad, Herles, CA, USA), and protein expression was quantified with the ImageJ software (v1.8.0).

gp130 = target: T1, gp130 (Homo sapiens, UniProt P40189); assay: Surface plasmon resonance, immobilized gp130; format: binding; details: SPR, CM5 chip, steady-state KD
T1 construct: purchased Sino Biological or ANRT
T1 sequence (P40189 23-918): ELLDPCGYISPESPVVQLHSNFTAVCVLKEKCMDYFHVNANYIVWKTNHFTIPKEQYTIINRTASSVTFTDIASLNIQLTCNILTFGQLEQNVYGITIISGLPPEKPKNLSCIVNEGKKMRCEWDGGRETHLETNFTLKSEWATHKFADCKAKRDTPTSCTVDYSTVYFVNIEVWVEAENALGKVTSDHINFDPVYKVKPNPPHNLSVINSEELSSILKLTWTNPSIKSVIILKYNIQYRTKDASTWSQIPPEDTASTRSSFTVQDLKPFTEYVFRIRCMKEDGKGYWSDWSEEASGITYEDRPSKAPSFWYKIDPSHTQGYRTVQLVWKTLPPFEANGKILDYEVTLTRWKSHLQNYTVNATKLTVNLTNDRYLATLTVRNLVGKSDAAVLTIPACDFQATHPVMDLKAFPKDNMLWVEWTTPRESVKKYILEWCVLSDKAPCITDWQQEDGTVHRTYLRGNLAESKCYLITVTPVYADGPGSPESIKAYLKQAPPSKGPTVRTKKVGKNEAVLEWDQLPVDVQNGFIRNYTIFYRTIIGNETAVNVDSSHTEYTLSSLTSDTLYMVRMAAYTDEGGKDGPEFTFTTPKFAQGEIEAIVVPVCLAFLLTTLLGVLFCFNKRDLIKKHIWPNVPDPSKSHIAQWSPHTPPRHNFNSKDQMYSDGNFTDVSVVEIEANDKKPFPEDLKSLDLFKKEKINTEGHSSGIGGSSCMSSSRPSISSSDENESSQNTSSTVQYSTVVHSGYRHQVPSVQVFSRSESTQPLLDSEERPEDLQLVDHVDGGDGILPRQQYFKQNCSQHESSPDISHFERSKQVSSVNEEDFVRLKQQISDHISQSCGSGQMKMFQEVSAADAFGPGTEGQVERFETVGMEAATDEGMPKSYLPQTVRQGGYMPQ
Experimental: The surface plasmon resonance (SPR) assay was measured using the BIAcore T200 model (GE Healthcare, Chicago, IL, USA) with HBS-EP buffer (1×HBS-EP, GE Healthcare, Chicago, IL, USA) containing 5% dimethyl sulfoxide (DMSO; Sigma-Aldrich, St. Louis, MO, USA). The pH scouting for IL-6 (PeproTech, Rocky Hill, NJ, USA), IL-6Rα (PeproTech, Rocky Hill, NJ, USA), and gp130 (Sino Biological, Beijing, China, or ANRT, Daejeon, Korea) immobilization was performed in 10 mM acetate buffer at pH 4.5. IL-6, IL-6Rα, and gp130 were immobilized on a CM5 chip at 750, 1200, and 2000 response units (RU). Butein was injected into the IL-6, IL-6Rα and gp130-immobilized flow cell at concentrations of 10, 20, 30, 40, 50, 60, 70, 80, 90, and 100 μM with a 25 μL/min flow rate for 150 s and allowed to dissociate for 300 s. Steady-state KD was determined via the T-200 BIAevaluation software (GE Healthcare, Chicago, IL, USA).

A2780 cells [3] = assay: Wound-healing assay, A2780; format: cell-based, human; details: 24 h and 48 h, concentration-dependent, vs control, 0.1% DMSO and siltuximab
Experimental: A2780 and SKOV3 cells were cultured to 90% confluence in 6-well plates. After changing to a serum-free medium, the cell monolayer was scraped to artificially form homogeneous wound with uniform thickness. The drug treatment for each well was carried out in the following manner: siltuximab at 50 μM; butein at 10, 25, and 50 μM. The cells were imaged at 0, 24, and 48 h.

A2780 cells [4] = assay: Cell viability by MTT assay, A2780; format: cell-based; details: Homo sapiens, 48 h
Experimental: A2780 and SKOV3 cell lines were purchased from the European Collection of Cell Cultures (ECACC, London, UK) and Korean Cell Line Bank (KCLB, Seoul, Republic of Korea) respectively. Each cell line was seeded in a 96-well plate at an appropriate cell number (3000 cells/100 μL in each well). After 24 h, butein was added to the plates at each of the following concentrations, 0, 3.125, 6.25, 12.5, 25, and 50 μM, in triplicate in the presence of serum medium. After 48 h, 100 μL of […] (Sigma-Aldrich, St. Louis, MO, USA) solubilizing solution was added to each well and incubated for 4 h. The solution was then aspirated, and 100 μL of DMSO was added for cell lysis. The spectrophotometric absorbance was measured at 540 nm. Half of the maximum inhibitory concentration (IC50) was determined using GraphPad Prism software (version 7.0).

SMILES: O=C(/C=C/c1ccc(O)c(O)c1)c1ccc(O)cc1O [butein]
- Clonogenicity, A2780 (A2780 cells [1]): significantly inhibited
- Clonogenicity, SKOV3 (SKOV3 cells): significantly inhibited
- Phosphorylation of STAT3, SKOV3 [2]: inhibited in a concentration-dependent manner
- Kd (gp130): 616 µM
- Cell migration, A2780 (A2780 cells [3]): reduced
- IC50 (A2780 cells [4]): 64.7 ± 6.27 µM
